Measured values: ChEMBL document CHEMBL6074631, “Design, synthesis, and evaluation of pyranochromene derivatives as membrane targeting antibacterials against Gram-positive bacteria” (Bioorg Med Chem Lett, 2024)
Converted amounts (≈) assume the structure as drawn.

Experiments:
Staphylococcus aureus [1] = test: Antibacterial activity against Staphylococcus aureus ATCC31007 assessed as reduction in bacterial growth by broth microdilution assay; format: functional
Pseudomonas aeruginosa = test: Antibacterial activity against penicillin-susceptible Pseudomonas aeruginosa ATCC27853 assessed as reduction in bacterial growth by broth microdilution assay; format: functional
Escherichia coli = test: Antibacterial activity against Escherichia coli ATCC25922 assessed as reduction in bacterial growth by broth microdilution assay; format: functional
Enterococcus faecalis = test: Antibacterial activity against penicillin-susceptible Enterococcus faecalis ATCC29212 assessed as reduction in bacterial growth by broth microdilution assay; format: functional
Staphylococcus aureus [2] = test: Antibacterial activity against Staphylococcus aureus ATCC25923 assessed as reduction in bacterial growth by broth microdilution assay; format: functional
Klebsiella pneumoniae = test: Antibacterial activity against erythromycin-susceptible Klebsiella pneumoniae ATCC10031 assessed as reduction in bacterial growth by broth microdilution assay; format: functional
[3] = tested on: Staphylococcus epidermidis; test: Antibacterial activity against vancomycin-susceptible Staphylococcus epidermidis ATCC12228 assessed as reduction in bacterial growth by broth microdilution assay; format: functional
Staphylococcus aureus [4] = test: Antibacterial activity against […] Staphylococcus aureus ATCC43300 assessed as reduction in bacterial growth by broth microdilution assay; format: functional
Acinetobacter baumannii = test: Antibacterial activity against Acinetobacter baumannii ATCC19606 assessed as reduction in bacterial growth by broth microdilution assay; format: functional
Bacillus subtilis = test: Antibacterial activity against […] Bacillus subtilis ATCC9372 assessed as reduction in bacterial growth by broth microdilution assay; format: functional
[5] = Hemolytic activity in RBC (unknown origin) assessed as hemolysis; format: toxicity, cell-based

Row | SMILES | MIC (Staphylococcus aureus [1]) | MIC (Pseudomonas aeruginosa) | MIC (Escherichia coli) | MIC (Enterococcus faecalis) | MIC (Staphylococcus aureus [2]) | MIC (Klebsiella pneumoniae) | MIC [3] | MIC (Staphylococcus aureus [4]) | MIC (Acinetobacter baumannii) | MIC (Bacillus subtilis) | HC90 ([5]; rbc) | HC50 ([5]; red blood cells)
1 | COc1c2c(c3c(c1C(=O)/C=C/c1ccc(OCCCN(C)CCCN(C)C)cc1)OC(C)(CCC=C(C)C)C=C3)OC(C)(CCC=C(C)C)C=C2 (stereo not drawn) | > 128 µg/mL | > 128 µg/mL | > 128 µg/mL | 16 µg/mL (≈ 22.5 µM) | > 128 µg/mL | > 128 µg/mL | 2 µg/mL (≈ 2.81 µM) | > 128 µg/mL | > 128 µg/mL | > 128 µg/mL | – | –
2 | CNCCN(C)C(=O)COc1c2c(c3c(c1C(C)=O)OC(C)(CCC=C(C)C)C=C3)OC(C)(CCC=C(C)C)C=C2 (stereo not drawn) | 4 µg/mL (≈ 7.08 µM) | 128 µg/mL (≈ 227 µM) | > 128 µg/mL | 8 µg/mL (≈ 14.2 µM) | 4 µg/mL (≈ 7.08 µM) | 128 µg/mL (≈ 227 µM) | 4 µg/mL (≈ 7.08 µM) | 4 µg/mL (≈ 7.08 µM) | 128 µg/mL (≈ 227 µM) | 16 µg/mL (≈ 28.3 µM) | – | –
3 | COc1c2c(c3c(c1C(=O)/C=C/c1ccc(OCCC[N+](C)(C)CCCN)cc1)OC(C)(CCC=C(C)C)C=C3)OC(C)(CCC=C(C)C)C=C2 (stereo not drawn) | 8 µg/mL | > 128 µg/mL | > 128 µg/mL | > 128 µg/mL | 16 µg/mL | > 128 µg/mL | 4 µg/mL | 32 µg/mL | > 128 µg/mL | 8 µg/mL | – | –
4 | CC(=O)c1c(OCC(=O)NCCCN2CCN(C)CC2)c2c(c3c1OC(C)(CCC=C(C)C)C=C3)OC(C)(CCC=C(C)C)C=C2 (stereo not drawn) | 2 µg/mL (≈ 3.16 µM) | > 128 µg/mL | > 128 µg/mL | 0.5 µg/mL (≈ 0.789 µM) | 2 µg/mL (≈ 3.16 µM) | > 128 µg/mL | 1 µg/mL (≈ 1.58 µM) | 4 µg/mL (≈ 6.31 µM) | 128 µg/mL (≈ 202 µM) | 2 µg/mL (≈ 3.16 µM) | 137.3 µg/mL | 46 µg/mL
5 | COc1c2c(c3c(c1C(=O)/C=C/c1ccc(OCCCN(CCCN(C)C)CCCN(C)C)cc1)OC(C)(CCC=C(C)C)C=C3)OC(C)(CCC=C(C)C)C=C2 (stereo not drawn) | 8 µg/mL (≈ 10.2 µM) | > 128 µg/mL | > 128 µg/mL | 8 µg/mL (≈ 10.2 µM) | 8 µg/mL (≈ 10.2 µM) | > 128 µg/mL | 2 µg/mL (≈ 2.56 µM) | 8 µg/mL (≈ 10.2 µM) | > 128 µg/mL | 8 µg/mL (≈ 10.2 µM) | – | –
6 | COc1c2c(c3c(c1C(=O)/C=C/c1ccc(OCCC[N+](C)(C)CCCN(C)C)cc1)OC(C)(CCC=C(C)C)C=C3)OC(C)(CCC=C(C)C)C=C2 (stereo not drawn) | 32 µg/mL | > 128 µg/mL | > 128 µg/mL | 16 µg/mL | 4 µg/mL | > 128 µg/mL | 2 µg/mL | 16 µg/mL | 32 µg/mL | 4 µg/mL | – | –
7 | CC(=O)c1c(OCC(=O)NCCCN2CCCC2)c2c(c3c1OC(C)(CCC=C(C)C)C=C3)OC(C)(CCC=C(C)C)C=C2 (stereo not drawn) | 4 µg/mL (≈ 6.61 µM) | > 128 µg/mL | > 128 µg/mL | 8 µg/mL (≈ 13.2 µM) | 4 µg/mL (≈ 6.61 µM) | > 128 µg/mL | 8 µg/mL (≈ 13.2 µM) | 4 µg/mL (≈ 6.61 µM) | 128 µg/mL (≈ 212 µM) | 16 µg/mL (≈ 26.5 µM) | – | –
8 | COc1c2c(c3c(c1C(=O)/C=C/c1ccc(OCCCN4CCSCC4)cc1)OC(C)(CCC=C(C)C)C=C3)OC(C)(CCC=C(C)C)C=C2 (stereo not drawn) | > 128 µg/mL | > 128 µg/mL | > 128 µg/mL | > 128 µg/mL | > 128 µg/mL | > 128 µg/mL | > 128 µg/mL | > 128 µg/mL | > 128 µg/mL | > 128 µg/mL | – | –
9 | CCN(CC)CCCNCCCOc1ccc(/C=C/C(=O)c2c(OC)c3c(c4c2OC(C)(CCC=C(C)C)C=C4)OC(C)(CCC=C(C)C)C=C3)cc1 (stereo not drawn) | 32 µg/mL (≈ 44.1 µM) | > 128 µg/mL | > 128 µg/mL | 32 µg/mL (≈ 44.1 µM) | 16 µg/mL (≈ 22.1 µM) | > 128 µg/mL | 4 µg/mL (≈ 5.52 µM) | 16 µg/mL (≈ 22.1 µM) | > 128 µg/mL | 8 µg/mL (≈ 11 µM) | – | –
10 | CCN(CC)CCCNC(=O)COc1c2c(c3c(c1C(C)=O)OC(C)(CCC=C(C)C)C=C3)OC(C)(CCC=C(C)C)C=C2 (stereo not drawn) | 4 µg/mL (≈ 6.59 µM) | 128 µg/mL (≈ 211 µM) | > 128 µg/mL | 2 µg/mL (≈ 3.3 µM) | 4 µg/mL (≈ 6.59 µM) | > 128 µg/mL | 2 µg/mL (≈ 3.3 µM) | 4 µg/mL (≈ 6.59 µM) | > 128 µg/mL | 2 µg/mL (≈ 3.3 µM) | – | –
11 | CC[N+](CC)(CC)CCCOc1ccc(/C=C/C(=O)c2c(OC)c3c(c4c2OC(C)(CCC=C(C)C)C=C4)OC(C)(CCC=C(C)C)C=C3)cc1 (stereo not drawn) | 64 µg/mL | > 128 µg/mL | > 128 µg/mL | 32 µg/mL | 64 µg/mL | > 128 µg/mL | 4 µg/mL | > 128 µg/mL | > 128 µg/mL | 64 µg/mL | – | –
12 | CCCCN(CCCC)CCCNC(=O)COc1c2c(c3c(c1C(C)=O)OC(C)(CCC=C(C)C)C=C3)OC(C)(CCC=C(C)C)C=C2 (stereo not drawn) | 4 µg/mL (≈ 6.03 µM) | > 128 µg/mL | > 128 µg/mL | 4 µg/mL (≈ 6.03 µM) | 4 µg/mL (≈ 6.03 µM) | > 128 µg/mL | 4 µg/mL (≈ 6.03 µM) | 8 µg/mL (≈ 12.1 µM) | > 128 µg/mL | 8 µg/mL (≈ 12.1 µM) | – | –
13 | COc1c2c(c3c(c1C(=O)/C=C/c1ccc(OCCCNCCCN4CCN(C)CC4)cc1)OC(C)(CCC=C(C)C)C=C3)OC(C)(CCC=C(C)C)C=C2 (stereo not drawn) | 4 µg/mL (≈ 5.32 µM) | > 128 µg/mL | > 128 µg/mL | 8 µg/mL (≈ 10.6 µM) | 4 µg/mL (≈ 5.32 µM) | > 128 µg/mL | 4 µg/mL (≈ 5.32 µM) | 8 µg/mL (≈ 10.6 µM) | > 128 µg/mL | 4 µg/mL (≈ 5.32 µM) | – | –
14 | CC(=O)c1c(OCC(=O)N(C)CCCN(C)C)c2c(c3c1OC(C)(CCC=C(C)C)C=C3)OC(C)(CCC=C(C)C)C=C2 (stereo not drawn) | 4 µg/mL (≈ 6.75 µM) | 128 µg/mL (≈ 216 µM) | > 128 µg/mL | 2 µg/mL (≈ 3.37 µM) | 4 µg/mL (≈ 6.75 µM) | > 128 µg/mL | 2 µg/mL (≈ 3.37 µM) | 4 µg/mL (≈ 6.75 µM) | 128 µg/mL (≈ 216 µM) | 2 µg/mL (≈ 3.37 µM) | – | –
15 | COc1c2c(c3c(c1C(=O)/C=C/c1ccc(OCCCN4CCOCC4)cc1)OC(C)(CCC=C(C)C)C=C3)OC(C)(CCC=C(C)C)C=C2 (stereo not drawn) | > 128 µg/mL | > 128 µg/mL | > 128 µg/mL | > 128 µg/mL | > 128 µg/mL | > 128 µg/mL | > 128 µg/mL | > 128 µg/mL | > 128 µg/mL | > 128 µg/mL | – | –
16 | CCNCCCOc1ccc(/C=C/C(=O)c2c(OC)c3c(c4c2OC(C)(CCC=C(C)C)C=C4)OC(C)(CCC=C(C)C)C=C3)cc1 (stereo not drawn) | > 128 µg/mL | 128 µg/mL (≈ 200 µM) | > 128 µg/mL | > 128 µg/mL | > 128 µg/mL | > 128 µg/mL | > 128 µg/mL | > 128 µg/mL | 128 µg/mL (≈ 200 µM) | 128 µg/mL (≈ 200 µM) | – | –
17 | CN[C@H](CC(C)C)C(=O)N[C@H]1C(=O)N[C@@H](CC(N)=O)C(=O)N[C@H]2C(=O)N[C@H]3C(=O)N[C@H](C(=O)N[C@H](C(=O)O)c4cc(O)cc(O)c4-c4cc3ccc4O)[C@H](O)c3ccc(c(Cl)c3)Oc3cc2cc(c3O[C@@H]2O[C@H](CO)[C@@H](O)[C@H](O)[C@H]2O[C@H]2C[C@](C)(N)[C@H](O)[C@H](C)O2)Oc2ccc(cc2Cl)[C@H]1O [VANCOMYCIN] | – | > 128 µg/mL | 128 µg/mL (≈ 88.3 µM) | 2 µg/mL (≈ 1.38 µM) | – | 128 µg/mL (≈ 88.3 µM) | – | – | 16 µg/mL (≈ 11 µM) | 0.5 µg/mL (≈ 0.345 µM) | – | –
